Data reported in US12582617B2, “Methods for treating cancer” (RADIUS PHARMACEUTICALS, INC., priority 2015, dated 2026).
Structures can show the parent of a compound that is named as a salt.

Molecular target: T1, ER (Homo sapiens, UniProt P03372)
T1 construct: from tissue; host or cells: uterus (also pituitary, bone and muscle as non-target tissue) of living human subjects
T1 sequence (P03372 1-595): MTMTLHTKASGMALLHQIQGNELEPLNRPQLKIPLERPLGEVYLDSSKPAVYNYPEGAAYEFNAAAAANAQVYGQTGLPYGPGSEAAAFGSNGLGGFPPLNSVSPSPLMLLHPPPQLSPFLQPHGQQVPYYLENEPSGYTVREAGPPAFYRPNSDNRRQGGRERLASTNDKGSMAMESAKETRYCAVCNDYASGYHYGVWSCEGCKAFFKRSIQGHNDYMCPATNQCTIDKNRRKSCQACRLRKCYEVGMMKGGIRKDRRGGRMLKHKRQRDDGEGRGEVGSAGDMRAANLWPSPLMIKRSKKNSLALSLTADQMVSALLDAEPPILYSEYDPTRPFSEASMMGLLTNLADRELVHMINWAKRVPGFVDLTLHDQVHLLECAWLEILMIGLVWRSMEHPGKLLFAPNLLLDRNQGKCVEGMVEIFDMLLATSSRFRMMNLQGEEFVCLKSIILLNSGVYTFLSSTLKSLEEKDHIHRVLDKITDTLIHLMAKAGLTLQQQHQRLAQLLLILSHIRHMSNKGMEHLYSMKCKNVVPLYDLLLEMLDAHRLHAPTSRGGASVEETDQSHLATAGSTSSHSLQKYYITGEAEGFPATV
Experiment: ER degradation and ER signaling in MCF-7 cell line in vitro
Assay type: cell-based
Details: MCF-7 cell lines; 0.001-1 μM
Description: MCF-7 cells (human mammary metastatic adenocarcinoma) were purchased from American Type Culture Collection (Rockville, MD) and were routinely maintained in phenol red-free minimal essential medium (MEM) containing 2 mM L-glutamine and Earle's BSS, 0.1 mM non-essential amino acids and 1 mM sodium pyruvate supplemented with 0.01 mg/ml bovine insulin and 10% fetal bovine serum (Invitrogen, Carlsbad, CA), at 5% CO2.
Cells were harvested and protein expression was analyzed using standard practice. Tumors were harvested at the indicated time points after the last day of dosing, homogenized in RIPA buffer with protease and phosphatase inhibitors using a Tissuelyser (Qiagen). Equal amounts of protein were separated by MW, transferred to nitrocellulose membranes and blotted with the following antibodies using standard practice: • Estrogen receptor (SantaCruz (HC-20); sc-543) • Progesterone receptor (Cell Signaling Technologies; 3153) • Vinculin (Sigma-Aldrich, v9131)
qPCR analyses were performed as follows: Cells were harvested, mRNA was extracted, and equal amounts used for cDNA synthesis and qPCR with primers specific for progesterone receptor, GREB1, and TFF1 (LifeTech). Bands were quantified using 1D Quant software (GE).
Three ER target genes, progesterone receptor (PgR), growth regulation by estrogen in breast cancer 1 (GREB1) and trefoil factor 1 (TFF1), were used as markers.

CCNCCc1ccc(CN(CC)c2cc(OC)ccc2[C@@H]2CCc3cc(O)ccc3C2)cc1 [RAD1901, (6R)-6-(2-(N-(4-(2-(ethylamino)ethyl)benzyl)-N-ethylamino)-4-methoxyphenyl)-5,6,7,8-tetrahydronaphthalen-2-ol dihydrochloride]
ER expression and ER signaling (PGR, GREB1, TFF1) (in words): complete ER degradation and inhibited ER signaling
